The values below come from patent US20260365647A1, “AKT1 MODULATORS” (Alterome Therapeutics, Inc., priority 2022, published 2026).

pIC50: −log10 of the molar value. Some results are limits rather than exact numbers.

T1 sequence (P31749 whole entry E17K): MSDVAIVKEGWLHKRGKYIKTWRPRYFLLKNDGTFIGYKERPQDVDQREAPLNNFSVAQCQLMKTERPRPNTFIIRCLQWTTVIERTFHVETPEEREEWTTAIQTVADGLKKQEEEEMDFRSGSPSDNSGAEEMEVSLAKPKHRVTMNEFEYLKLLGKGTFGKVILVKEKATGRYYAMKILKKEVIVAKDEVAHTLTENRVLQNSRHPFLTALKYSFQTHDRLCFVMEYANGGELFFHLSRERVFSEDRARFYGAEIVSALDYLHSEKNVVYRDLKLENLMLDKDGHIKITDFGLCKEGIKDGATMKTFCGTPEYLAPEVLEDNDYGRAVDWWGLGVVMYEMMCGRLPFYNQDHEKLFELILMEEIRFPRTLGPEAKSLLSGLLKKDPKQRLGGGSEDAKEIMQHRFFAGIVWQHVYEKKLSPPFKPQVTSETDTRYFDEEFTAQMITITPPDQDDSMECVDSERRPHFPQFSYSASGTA

The assay concerns the target T1, AKT1-E17K (Homo sapiens, UniProt P31749, E17K).
T1 construct: host or cells: HEK-293 (ATCC CRL-1573)
Kind of assay: NanoBRET Target Engagement (TE) Assay. It is filed as cell-based. An excerpt: The NanoBRET™ Target Engagement (TE) Intracellular Kinase Assays are based on the NanoBRET™ System (Promega Corporation), an energy transfer technique designed to measure molecular proximity in living cells. The NanoBRET™ TE Assays measure the apparent affinity of test compounds by competitive displacement of the NanoBRET™ tracer compound, which is a cell permeable molecule engineered to be reversibly bound to a NanoLuc® luciferase-kinase fusion expressed in cells. For compound screening, when a test compound binds to the selected kinase, the BRET signal is attenuated. […] All cells were evaluated for viability prior to transfection and optimization of the transfection was done prior to experimentation. […] Following transfection, cells were washed and resuspended in Opti-MEM. NanoBRET assays were performed in white, 384-well plates (Corning) at a density of […]. All example compounds were prepared as concentrated stock solutions in DMSO (Sigma-Aldrich). Compounds are dissolved in DMSO to make 10 mM stock solution. […] A Labcyte ECHO 550 compound dispenser was used to facilitate compound transfer directly to cells. Cells were equilibrated for 2 hr with energy transfer probes and example compound prior to BRET measurements. […] For target engagement analysis, the energy transfer probes were added to the cells at concentrations optimized for the target in question (AKT E17K). Following compound incubation, NanoBRET NanoGlo Substrate (Promega Cat #N157D) and Extracellular Nanoluc Inhibitor (Promega Cat #N235C) was added according to the manufacturer's recommended protocol, and luminescence was measured on Envision Reader (Perkin Elmer) Multimode Luminometer equipped with 450 nmBPfilter (donor) and 600 nmLPfilter (acceptor), using 0.5 s integration time. Milli-BRET units (mBU) are calculated by multiplying the raw BRET values by 1000. Apparent tracer affinity values (EC50) were determined using the sigmoidal dose-response (variable slope). Competitive displacement data were then plotted and data were fit to determine the EC50 value for each example compound.
For orientation: Bioluminescence resonance energy transfer reports proximity on the nanometre scale.
As to `Nc1ncccc1-c1nc2ccc(-c3cccc(F)c3)nc2n1-c1ccc(CN2CCN(C(=O)c3ccc(O)c(C=O)c3)CC2)cc1` [Example 40, 5-(4-(4-(2-(2-Aminopyridin-3-yl)-5-(3-fluorophenyl)-3H-imidazo[4,5-b]pyridin-3-yl)benzyl)piperazine-1-carbonyl)-2-hydroxybenzaldehyde], the pIC50 (in general, the negative decadic logarithm of the IC50, by convention in mol/L) was 6.22 to 7.22. The same measure for `Nc1ncccc1-c1nc2ccc(-c3ccccc3)nc2n1-c1ccc(CN2C[C@@H]3CN(c4ccc(O)c(C=O)c4)C[C@@H]3C2)cc1` [Example 134, 5-((3aR,6aS)-5-(4-(2-(2-Aminopyridin-3-yl)-5-phenyl-3H-imidazo[4,5-b]pyridin-3-yl)benzyl)hexahydropyrrolo[3,4-c]pyrrol-2(1H)-yl)-2-hydroxybenzaldehyde]: 6.22 to 7.22.

In turn, `Nc1ncccc1-c1nc2ccc(-c3ccccc3)nc2n1-c1ccc(CN2CCC3(CCN(c4ccc(C=O)c(O)c4)C3)C2)cc1` (stereo not shown) [Example 82, 4-(7-(4-(2-(2-Aminopyridin-3-yl)-5-phenyl-3H-imidazo[4,5-b]pyridin-3-yl)benzyl)-2,7-diazaspiro[4.4]nonan-2-yl)-2-hydroxybenzaldehyde] had a negative logarithm of the IC50 (pIC50) of 6.22 to 7.22. The figure for `Nc1ncccc1-c1nc2ccc(-c3ccccc3)nc2n1-c1ccc(CN2CC(NC(=O)c3ccc(O)c(C=O)c3)C2)cc1` [Example 61, N-(1-(4-(2-(2-Aminopyridin-3-yl)-5-phenyl-3H-imidazo[4,5-b]pyridin-3-yl)benzyl)azetidin-3-yl)-3-formyl-4-hydroxybenzamide] is 7.22 to 7.82; for `Nc1ncccc1-c1nc2ccc(-c3ccccc3)nc2n1-c1ccc(CN2CCC[C@@H](NC(=O)c3ccc(C=O)c(O)c3)C2)cc1` [Example 63, (R)—N-(1-(4-(2-(2-Aminopyridin-3-yl)-5-phenyl-3H-imidazo[4,5-b]pyridin-3-yl)benzyl)piperidin-3-yl)-4-formyl-3-hydroxybenzamide] it is 6.22 to 7.22. The figure for `Nc1ncccc1-c1nc2ccc(-c3ccccc3)nc2n1-c1ccc(CN2CC3(C2)CN(c2ccc(C=O)c(O)c2)C3)cc1` [Example 89, 4-(6-(4-(2-(2-aminopyridin-3-yl)-5-phenyl-3H-imidazo[4,5-b]pyridin-3-yl)benzyl)-2,6-diazaspiro[3.3]heptan-2-yl)-2-hydroxybenzaldehyde] is 7.22 to 7.82; for `Nc1ncccc1-c1nc2ccc(-c3ccccc3)nc2n1-c1ccc(CN2CCC(Nc3cccc(O)c3C=O)CC2)cc1` [Example 51, 2-((1-(4-(2-(2-Aminopyridin-3-yl)-5-phenyl-3H-imidazo[4,5-b]pyridin-3-yl)benzyl)piperidin-4-yl)amino)-6-hydroxybenzaldehyde] it is 6.22 to 7.22.

`N#Cc1ccc(-c2ccc3nc(-c4cccnc4N)n(-c4ccc(CN5CCN(C(=O)c6ccc(C=O)c(O)c6)CC5)cc4)c3n2)cc1` [Example 39, 4-(2-(2-Aminopyridin-3-yl)-3-(4-((4-(4-formyl-3-hydroxybenzoyl)piperazin-1-yl)methyl)phenyl)-3H-imidazo[4,5-b]pyridin-5-yl)benzonitrile] had a pIC50 of 6.22 to 7.22.

`Nc1ncccc1-c1nc2ccc(N3CCOCC3)nc2n1-c1ccc(CN2CCN(c3ccc(C=O)c(O)c3)CC2)cc1` [Example 31, 4-(4-(4-(2-(2-Aminopyridin-3-yl)-5-morpholino-3H-imidazo[4,5-b]pyridin-3-yl)benzyl)piperazin-1-yl)-2-hydroxybenzaldehyde] had a pIC50 of 6.22 to 7.22. The same measure for `Nc1ncccc1-c1nc2ccc(-c3ccccc3)nc2n1-c1ccc(CN2CC3(C2)CN(C(=O)c2ccc(O)c(C=O)c2)C3)cc1` [Example 62, 5-(6-(4-(2-(2-Aminopyridin-3-yl)-5-phenyl-3H-imidazo[4,5-b]pyridin-3-yl)benzyl)-2,6-diazaspiro[3.3]heptane-2-carbonyl)-2-hydroxybenzaldehyde]: above 7.82; for `Nc1ncccc1-c1nc2ccc(-c3ccccc3)nc2n1-c1ccc(CN2CCC3(CC2)CCN(C(=O)c2ccc(C=O)c(O)c2)C3)cc1` [Example 75, 4-(8-(4-(2-(2-Aminopyridin-3-yl)-5-phenyl-3H-imidazo[4,5-b]pyridin-3-yl)benzyl)-2,8-diazaspiro[4.5]decane-2-carbonyl)-2-hydroxybenzaldehyde]: 6.22 to 7.22. The figure for `Nc1ncccc1-c1nc2ccc(-c3ccccc3)nc2n1-c1ccc(CN2CC3(CCN(C(=O)c4ccc(O)c(C=O)c4)CC3)C2)cc1` [Example 95, 5-(2-(4-(2-(2-Aminopyridin-3-yl)-5-phenyl-3H-imidazo[4,5-b]pyridin-3-yl)benzyl)-2,7-diazaspiro[3.5]nonane-7-carbonyl)-2-hydroxybenzaldehyde] is 6.22 to 7.22; for `Nc1ncccc1-c1nc2ccc(-c3ccccc3)nc2n1-c1ccc(CN2CC3CCC(C2)N3C(=O)c2ccc(C=O)c(O)c2)cc1` [Example 109, 4-(3-(4-(2-(2-Aminopyridin-3-yl)-5-phenyl-3H-imidazo[4,5-b]pyridin-3-yl)benzyl)-3,8-diazabicyclo[3.2.1]octane-8-carbonyl)-2-hydroxybenzaldehyde] it is below 6.22; for `Nc1ncccc1-c1nc2ccc(C3=CCOCC3)nc2n1-c1ccc(CN2CCN(C(=O)c3ccc(C=O)c(O)c3)CC2)cc1` [Example 30, 4-(4-(4-(2-(2-Aminopyridin-3-yl)-5-(3,6-dihydro-2H-pyran-4-yl)-3H-imidazo[4,5-b]pyridin-3-yl)benzyl)piperazine-1-carbonyl)-2-hydroxybenzaldehyde] it is 6.22 to 7.22. The same measure for `Nc1ncccc1-c1nc2ccc(-c3ccccc3)nc2n1-c1ccc(CN2CCCN(C(=O)c3ccc(O)c(C=O)c3)CC2)cc1` [Example 119, 5-(4-(4-(2-(2-Aminopyridin-3-yl)-5-phenyl-3H-imidazo[4,5-b]pyridin-3-yl)benzyl)-1,4-diazepane-1-carbonyl)-2-hydroxybenzaldehyde]: 7.22 to 7.82; for `Nc1ncccc1-c1nc2ccc(C3=CCCCC3)nc2n1-c1ccc(CN2CCN(C(=O)c3ccc(C=O)c(O)c3)CC2)cc1` [Example 151, 4-(4-(4-(2-(2-aminopyridin-3-yl)-5-(cyclohex-1-en-1-yl)-3H-imidazo[4,5-b]pyridin-3-yl)benzyl)piperazine-1-carbonyl)-2-hydroxybenzaldehyde]: below 6.22. Turning to `Nc1ncccc1-c1nc2ccc(-c3ccccc3)nc2n1-c1ccc(CN2CCC(N(C(=O)c3ccc(O)c(C=O)c3)C3CC3)CC2)cc1` [Example 12, N-(1-(4-(2-(2-aminopyridin-3-yl)-5-phenyl-3H-imidazo[4,5-b]pyridin-3-yl)benzyl)piperidin-4-yl)-N-cyclopropyl-3-formyl-4-hydroxybenzamide], the pIC50 was 6.22 to 7.22. `Nc1ncccc1-c1nc2ccc(-c3cccc(F)c3)nc2n1-c1ccc(CN2CCN(C(=O)c3ccc(C=O)c(O)c3)CC2)cc1` [Example 41, 4-(4-(4-(2-(2-Aminopyridin-3-yl)-5-(3-fluorophenyl)-3H-imidazo[4,5-b]pyridin-3-yl)benzyl)piperazine-1-carbonyl)-2-hydroxybenzaldehyde]: the negative logarithm of the IC50 (pIC50) was 6.22 to 7.22. Turning to `Nc1ncccc1-c1nc2ccc(-c3ccccc3)nc2n1-c1ccc(CN2CCC3(CC2)CN(C(=O)c2ccc(C=O)c(O)c2)C3)cc1` [Example 71, 4-(7-(4-(2-(2-Aminopyridin-3-yl)-5-phenyl-3H-imidazo[4,5-b]pyridin-3-yl)benzyl)-2,7-diazaspiro[3.5]nonane-2-carbonyl)-2-hydroxybenzaldehyde], the pIC50 was below 6.22.
